Results on one compound are retold here after ChEMBL document CHEMBL1149462, “Total synthesis and biological evaluation of 22-hydroxyacuminatine” (J Med Chem, 2006).

The test system of one experiment is P388. Nature of the experiment: Cytotoxicity against P388 murine leukemic cell line. In kind it is functional, cell-based. The note with it: Mus musculus.
The next experiment deals with P388CPT45. Kind of experiment: Cytotoxicity against topoisomerase 1-deficient subclone P388/CPT45 murine leukemic cell line. The note with it: Mus musculus. In kind it is functional, cell-based.

What is called IC50 is the point on the concentration scale where inhibition reaches its midpoint. A high value points to a need for much substance. In the case of `O=c1c2cccc(CO)c2cc2n1Cc1cc3ccccc3nc1-2`, the IC50 in the experiment on P388 is 35.5 µM; in the experiment on P388CPT45, 43 µM.
